# Reference: the supplement of paper PMC8882468
# Test system: HCI-002 (organoid from a triple-negative breast cancer xenograft)
# Test: CTG-3D luminescence at 96 h relative to day-0 seeding control (ratio to day 0); higher = more growth / less cytotoxicity; PDxO 3D drug screen, 96 h, CTG-3D normalised to day-0 seeding control.
# Conditions: 0.00025 µM; days in culture: 91
row,SMILES,CTG-3D luminescence at 96 h
1,COc1cc2c(Oc3ccc4[nH]c(C)cc4c3F)ncnc2cc1OCCCN1CCCC1 [cediranib],3.53
2,CC(C)n1nc(-c2ccc3oc(N)nc3c2)c2c(N)ncnc21 [sapanisertib],3.41
3,Cc1cc(Nc2ncnc3ccc(NC4=NC(C)(C)CO4)cc23)ccc1Oc1ccn2ncnc2c1 [tucatinib],3.15
4,C[C@H](NC(=O)CCC(F)(F)F)C(=O)N[C@@H]1C(=O)N(CCO)c2ncccc2-c2ccccc21 [crenigacestat],3.6
5,C[C@]12CC[C@@H]3c4ccc(O)cc4C[C@@H](CCCCCCCCC[S+]([O-])CCCC(F)(F)C(F)(F)F)[C@H]3[C@@H]1CC[C@@H]2O (some centres not stated) [fulvestrant],3.05
6,O=C(c1ccc(F)c(F)c1Nc1ccc(I)cc1F)N1CC(O)([C@@H]2CCCCN2)C1 [cobimetinib],3.46
7,O=C(/C=C/c1cccnc1)NCCCCC1CCN(C(=O)c2ccccc2)CC1 [FK866],3.63
8,CS(=O)(=O)c1ccc(C(=O)Nc2ccc(Cl)c(-c3ccccn3)c2)c(Cl)c1 [vismodegib],2.4
9,C=CCn1c(=O)c2cnc(Nc3ccc(N4CCN(C)CC4)cc3)nc2n1-c1cccc(C(C)(C)O)n1 [adavosertib],3.67

# Same assay, conditions: 0.00025 µM; days in culture: 191
row,SMILES,CTG-3D luminescence at 96 h
1,COc1cc2c(Oc3ccc4[nH]c(C)cc4c3F)ncnc2cc1OCCCN1CCCC1 [cediranib],2.65
2,CC(C)n1nc(-c2ccc3oc(N)nc3c2)c2c(N)ncnc21 [sapanisertib],2.71
3,Cc1cc(Nc2ncnc3ccc(NC4=NC(C)(C)CO4)cc23)ccc1Oc1ccn2ncnc2c1 [tucatinib],2.43
4,C[C@H](NC(=O)CCC(F)(F)F)C(=O)N[C@@H]1C(=O)N(CCO)c2ncccc2-c2ccccc21 [crenigacestat],2.32
5,C[C@]12CC[C@@H]3c4ccc(O)cc4C[C@@H](CCCCCCCCC[S+]([O-])CCCC(F)(F)C(F)(F)F)[C@H]3[C@@H]1CC[C@@H]2O (some centres not stated) [fulvestrant],3.1
6,O=C(c1ccc(F)c(F)c1Nc1ccc(I)cc1F)N1CC(O)([C@@H]2CCCCN2)C1 [cobimetinib],2.52
7,O=C(/C=C/c1cccnc1)NCCCCC1CCN(C(=O)c2ccccc2)CC1 [FK866],2.7
8,CS(=O)(=O)c1ccc(C(=O)Nc2ccc(Cl)c(-c3ccccn3)c2)c(Cl)c1 [vismodegib],3.25
9,C=CCn1c(=O)c2cnc(Nc3ccc(N4CCN(C)CC4)cc3)nc2n1-c1cccc(C(C)(C)O)n1 [adavosertib],2.7

# Same assay, conditions: 0.00025 µM; days in culture: 209
row,SMILES,CTG-3D luminescence at 96 h
1,COc1cc2c(Oc3ccc4[nH]c(C)cc4c3F)ncnc2cc1OCCCN1CCCC1 [cediranib],2.26
2,CC(C)n1nc(-c2ccc3oc(N)nc3c2)c2c(N)ncnc21 [sapanisertib],2.26
3,Cc1cc(Nc2ncnc3ccc(NC4=NC(C)(C)CO4)cc23)ccc1Oc1ccn2ncnc2c1 [tucatinib],2.16
4,C[C@H](NC(=O)CCC(F)(F)F)C(=O)N[C@@H]1C(=O)N(CCO)c2ncccc2-c2ccccc21 [crenigacestat],2.47
5,C[C@]12CC[C@@H]3c4ccc(O)cc4C[C@@H](CCCCCCCCC[S+]([O-])CCCC(F)(F)C(F)(F)F)[C@H]3[C@@H]1CC[C@@H]2O (some centres not stated) [fulvestrant],2.27
6,O=C(c1ccc(F)c(F)c1Nc1ccc(I)cc1F)N1CC(O)([C@@H]2CCCCN2)C1 [cobimetinib],2.32
7,O=C(/C=C/c1cccnc1)NCCCCC1CCN(C(=O)c2ccccc2)CC1 [FK866],2.33
8,CS(=O)(=O)c1ccc(C(=O)Nc2ccc(Cl)c(-c3ccccn3)c2)c(Cl)c1 [vismodegib],2.86
9,C=CCn1c(=O)c2cnc(Nc3ccc(N4CCN(C)CC4)cc3)nc2n1-c1cccc(C(C)(C)O)n1 [adavosertib],2.42

# Same assay, conditions: 0.00025 µM; days in culture: 227
row,SMILES,CTG-3D luminescence at 96 h
1,COc1cc2c(Oc3ccc4[nH]c(C)cc4c3F)ncnc2cc1OCCCN1CCCC1 [cediranib],5.66
2,CC(C)n1nc(-c2ccc3oc(N)nc3c2)c2c(N)ncnc21 [sapanisertib],4.74
3,Cc1cc(Nc2ncnc3ccc(NC4=NC(C)(C)CO4)cc23)ccc1Oc1ccn2ncnc2c1 [tucatinib],5.28
4,C[C@H](NC(=O)CCC(F)(F)F)C(=O)N[C@@H]1C(=O)N(CCO)c2ncccc2-c2ccccc21 [crenigacestat],5.77
5,C[C@]12CC[C@@H]3c4ccc(O)cc4C[C@@H](CCCCCCCCC[S+]([O-])CCCC(F)(F)C(F)(F)F)[C@H]3[C@@H]1CC[C@@H]2O (some centres not stated) [fulvestrant],4.65
6,O=C(c1ccc(F)c(F)c1Nc1ccc(I)cc1F)N1CC(O)([C@@H]2CCCCN2)C1 [cobimetinib],5.25
7,O=C(/C=C/c1cccnc1)NCCCCC1CCN(C(=O)c2ccccc2)CC1 [FK866],5.39
8,CS(=O)(=O)c1ccc(C(=O)Nc2ccc(Cl)c(-c3ccccn3)c2)c(Cl)c1 [vismodegib],4.4
9,C=CCn1c(=O)c2cnc(Nc3ccc(N4CCN(C)CC4)cc3)nc2n1-c1cccc(C(C)(C)O)n1 [adavosertib],6.34

# Same assay, conditions: 0.005 µM; days in culture: 62
row,SMILES,CTG-3D luminescence at 96 h
1,COc1cc2c(Oc3ccc4[nH]c(C)cc4c3F)ncnc2cc1OCCCN1CCCC1 [cediranib],2.84
2,CC(C)n1nc(-c2ccc3oc(N)nc3c2)c2c(N)ncnc21 [sapanisertib],2.7
3,Cc1cc(Nc2ncnc3ccc(NC4=NC(C)(C)CO4)cc23)ccc1Oc1ccn2ncnc2c1 [tucatinib],3.08
4,C[C@H](NC(=O)CCC(F)(F)F)C(=O)N[C@@H]1C(=O)N(CCO)c2ncccc2-c2ccccc21 [crenigacestat],2.56
5,C[C@]12CC[C@@H]3c4ccc(O)cc4C[C@@H](CCCCCCCCC[S+]([O-])CCCC(F)(F)C(F)(F)F)[C@H]3[C@@H]1CC[C@@H]2O (some centres not stated) [fulvestrant],3.14
6,O=C(c1ccc(F)c(F)c1Nc1ccc(I)cc1F)N1CC(O)([C@@H]2CCCCN2)C1 [cobimetinib],2.87
7,O=C(/C=C/c1cccnc1)NCCCCC1CCN(C(=O)c2ccccc2)CC1 [FK866],1.43
8,CS(=O)(=O)c1ccc(C(=O)Nc2ccc(Cl)c(-c3ccccn3)c2)c(Cl)c1 [vismodegib],3.64
9,C=CCn1c(=O)c2cnc(Nc3ccc(N4CCN(C)CC4)cc3)nc2n1-c1cccc(C(C)(C)O)n1 [adavosertib],2.73

# Same assay, conditions: 0.005 µM; days in culture: 82
row,SMILES,CTG-3D luminescence at 96 h
1,COc1cc2c(Oc3ccc4[nH]c(C)cc4c3F)ncnc2cc1OCCCN1CCCC1 [cediranib],2.11
2,CC(C)n1nc(-c2ccc3oc(N)nc3c2)c2c(N)ncnc21 [sapanisertib],2.04
3,Cc1cc(Nc2ncnc3ccc(NC4=NC(C)(C)CO4)cc23)ccc1Oc1ccn2ncnc2c1 [tucatinib],2.09
4,C[C@H](NC(=O)CCC(F)(F)F)C(=O)N[C@@H]1C(=O)N(CCO)c2ncccc2-c2ccccc21 [crenigacestat],2.46
5,C[C@]12CC[C@@H]3c4ccc(O)cc4C[C@@H](CCCCCCCCC[S+]([O-])CCCC(F)(F)C(F)(F)F)[C@H]3[C@@H]1CC[C@@H]2O (some centres not stated) [fulvestrant],2.4
6,O=C(c1ccc(F)c(F)c1Nc1ccc(I)cc1F)N1CC(O)([C@@H]2CCCCN2)C1 [cobimetinib],2.39
7,O=C(/C=C/c1cccnc1)NCCCCC1CCN(C(=O)c2ccccc2)CC1 [FK866],0.508
8,CS(=O)(=O)c1ccc(C(=O)Nc2ccc(Cl)c(-c3ccccn3)c2)c(Cl)c1 [vismodegib],2.41
9,C=CCn1c(=O)c2cnc(Nc3ccc(N4CCN(C)CC4)cc3)nc2n1-c1cccc(C(C)(C)O)n1 [adavosertib],2.02

# Same assay, conditions: 0.005 µM; days in culture: 91
row,SMILES,CTG-3D luminescence at 96 h
1,COc1cc2c(Oc3ccc4[nH]c(C)cc4c3F)ncnc2cc1OCCCN1CCCC1 [cediranib],3.54
2,CC(C)n1nc(-c2ccc3oc(N)nc3c2)c2c(N)ncnc21 [sapanisertib],2.81
3,Cc1cc(Nc2ncnc3ccc(NC4=NC(C)(C)CO4)cc23)ccc1Oc1ccn2ncnc2c1 [tucatinib],2.38
4,C[C@H](NC(=O)CCC(F)(F)F)C(=O)N[C@@H]1C(=O)N(CCO)c2ncccc2-c2ccccc21 [crenigacestat],2.93
5,C[C@]12CC[C@@H]3c4ccc(O)cc4C[C@@H](CCCCCCCCC[S+]([O-])CCCC(F)(F)C(F)(F)F)[C@H]3[C@@H]1CC[C@@H]2O (some centres not stated) [fulvestrant],2.86
6,O=C(c1ccc(F)c(F)c1Nc1ccc(I)cc1F)N1CC(O)([C@@H]2CCCCN2)C1 [cobimetinib],2.9
7,O=C(/C=C/c1cccnc1)NCCCCC1CCN(C(=O)c2ccccc2)CC1 [FK866],1.55
8,CS(=O)(=O)c1ccc(C(=O)Nc2ccc(Cl)c(-c3ccccn3)c2)c(Cl)c1 [vismodegib],2.04
9,C=CCn1c(=O)c2cnc(Nc3ccc(N4CCN(C)CC4)cc3)nc2n1-c1cccc(C(C)(C)O)n1 [adavosertib],3.79

# Same assay, conditions: 0.005 µM; days in culture: 191
row,SMILES,CTG-3D luminescence at 96 h
1,COc1cc2c(Oc3ccc4[nH]c(C)cc4c3F)ncnc2cc1OCCCN1CCCC1 [cediranib],2.32
2,CC(C)n1nc(-c2ccc3oc(N)nc3c2)c2c(N)ncnc21 [sapanisertib],2.07
3,Cc1cc(Nc2ncnc3ccc(NC4=NC(C)(C)CO4)cc23)ccc1Oc1ccn2ncnc2c1 [tucatinib],2.47
4,C[C@H](NC(=O)CCC(F)(F)F)C(=O)N[C@@H]1C(=O)N(CCO)c2ncccc2-c2ccccc21 [crenigacestat],2.2
5,C[C@]12CC[C@@H]3c4ccc(O)cc4C[C@@H](CCCCCCCCC[S+]([O-])CCCC(F)(F)C(F)(F)F)[C@H]3[C@@H]1CC[C@@H]2O (some centres not stated) [fulvestrant],2.93
6,O=C(c1ccc(F)c(F)c1Nc1ccc(I)cc1F)N1CC(O)([C@@H]2CCCCN2)C1 [cobimetinib],2.54
7,O=C(/C=C/c1cccnc1)NCCCCC1CCN(C(=O)c2ccccc2)CC1 [FK866],0.424
8,CS(=O)(=O)c1ccc(C(=O)Nc2ccc(Cl)c(-c3ccccn3)c2)c(Cl)c1 [vismodegib],3.31
9,C=CCn1c(=O)c2cnc(Nc3ccc(N4CCN(C)CC4)cc3)nc2n1-c1cccc(C(C)(C)O)n1 [adavosertib],2.5
